# Results from patent EP0705601B1, “Anthraquinones containing solutions for parenteral administration” (LOMAPHARM Rudolf Lohmann GmbH KG Pharmazeutische Fabrik, priority 1994, dated 1996).
# Where two headings read alike, the source gives them in different places.
# How the values were obtained:
# [1] = water, Raumtemperatur, cited from earlier work
# [2] = Increase of solubility with the solubilisers of the invention relative to purely aqueous phase; type: physicochemical; details: fold increase versus solubility in purely aqueous phase, with solubilisers I-III
# Text: Überraschenderweise wurde nun gefunden, daß die Löslichkeit der Anthrachinone durch den Einsatz von mindestens einem Lösungsvermittler ausgewählt aus • I. Polyethylenglykol-660-12-Hydroxystearat • II. Tetrahydrofurfurylalkoholpolyethylenglykolether • III. Wasserlösliche Beta- und Gamma-Cyclodextrinderivate, allein oder in Kombination mit anderen, physiologisch geeigneten, nichtwäßrigen Lösungsmitteln bzw. Lösungsvermittlern um mehr als das Hundertfache ihrer Löslichkeit in rein wäßriger Phase erhöht werden kann.
# [3] = man; D. Lorenz et al. 1985; cited from earlier work
smiles,measurement,setting,value
O=C1c2ccccc2C(=O)c2c1ccc(O)c2O [Alizarin],Löslichkeit in Wasser,[1],ca. 2 µmol/l
same,Löslichkeit in Wasser,[1]; conversion of the µmol/l value,"≈ 0,48 mg/l"
same,Erhöhung der Löslichkeit,[2],mehr als das Tausendfache
same,Halbwertzeit,[3],ca. 12 Std.
